Test results taken from US20060194837A1, “Tetrahydroisoquinoline compounds” (priority 2004, published 2006).
Like-named read-outs stand apart in the source and are kept apart here. Values belong to the compound of their own block, whether it stands above or below them.

What was measured:
Rat SERT = molecular target: T1, Rat SERT (Rattus norvegicus, UniProt P31652); assay: Rat brain SERT binding ([3H]-citalopram displacement); conditions: rat brain membranes without cerebellum, 0.6 nM [3H]-citalopram, 60 min at 25° C.; read-out: Rat SERT Ki
T1 construct: A rat brain without cerebellum (Zivic Laboratories, Inc.—Pittsburgh, Pa.) was homogenized; tissue Zivic Laboratories, Inc; host or cells: rat brain without cerebellum, membranes
Protocol: The supernatant was removed and re-centrifuged at 15,000 rpm for 30 min. […] Membranes were incubated with 0.6 nM [^3H]-Citalopram plus/minus test compounds for 60 min at 25° C. and harvested by rapid filtration over GF/C glass fiber filters (pretreated with 0.3% polyethylenimine) followed by four washes with ice-cold buffer.

human H3 receptor [1] = molecular target: T2, human H3 receptor (Homo sapiens, UniProt Q9Y5N1); assay: H3 receptor binding (N-[3H]-α-methylhistamine displacement); conditions: membranes of SK-N-MC cells expressing cloned human H3 receptor, 0.8 nM N-[3H]-α-methylhistamine, 60 min at 25° C.
T2 construct: expressed in transfected cells

human SERT = molecular target: T3, human SERT (Homo sapiens, UniProt P31645); assay: Human SERT binding (3H-citalopram displacement); conditions: HEK293 membranes expressing human SERT, rt 1 h
T3 construct: expressed in transfected cells; host or cells: HEK293 membranes
Protocol: Homogenized HEK293 (Human Embryonic Kidney) membranes expressing the human SERT were incubated with ^3H-citalopram (SERT) at rt for 1 h in 50 mM Tris, 120 mM NaCl, 5 mM KCl (pH 7.4). […] The membranes were washed and the radioactivity was counted as above.

human H3 receptor [2] = molecular target: T2, human H3 receptor; assay: Cyclic AMP accumulation (β-galactosidase reporter, Schild analysis); format: cell-based; conditions: histamine agonist, forskolin 5 μM, Schild regression of pEC50 values
Protocol: Sublines of SK-N-MC cells were created that expressed a reporter construct and the human H3 receptor. The reporter gene (β-galactosidase) is under the control of multiple cyclic AMP responsive elements. In 96-well plates, histamine was added directly to the cell media followed 5 min later by an addition of forskolin (5 μM final concentration). When appropriate, antagonists were added 10 min prior to agonist addition. After a 6-h incubation at 37° C., the media was aspirated and the cells washed with 200 μL of phosphate-buffered saline followed by a second aspiration. Cells were lysed with 25 μL 0.1× assay buffer (10 mM Na-phosphate, pH 8, 0.2 mM MgSO4, 0.01 mM MnCl2) and incubated at rt for 10 min. […] Color was developed using 25 μL of 1 mg/mL substrate solution (chlorophenolred β-D galactopyranoside; Roche Molecular Biochemicals, Indianapolis, In.).

[3] = SK-N-MC cells expressing human H3 receptor and CRE-β-galactosidase reporter, read-out: pA2 (converted)

T2 sequence (Q9Y5N1 whole entry): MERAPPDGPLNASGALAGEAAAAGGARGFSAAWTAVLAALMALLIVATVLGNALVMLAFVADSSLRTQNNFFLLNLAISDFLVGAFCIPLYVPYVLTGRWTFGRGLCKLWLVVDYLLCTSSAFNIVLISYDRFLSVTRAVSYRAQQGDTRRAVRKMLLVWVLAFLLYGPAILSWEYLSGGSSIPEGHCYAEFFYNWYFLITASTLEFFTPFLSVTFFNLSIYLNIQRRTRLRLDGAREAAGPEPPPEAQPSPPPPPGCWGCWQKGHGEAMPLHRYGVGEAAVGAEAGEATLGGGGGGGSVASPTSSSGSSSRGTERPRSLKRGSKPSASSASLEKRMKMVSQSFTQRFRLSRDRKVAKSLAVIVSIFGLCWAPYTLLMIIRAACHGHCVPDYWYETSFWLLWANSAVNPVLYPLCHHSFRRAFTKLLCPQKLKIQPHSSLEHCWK
T3 sequence (P31645 whole entry): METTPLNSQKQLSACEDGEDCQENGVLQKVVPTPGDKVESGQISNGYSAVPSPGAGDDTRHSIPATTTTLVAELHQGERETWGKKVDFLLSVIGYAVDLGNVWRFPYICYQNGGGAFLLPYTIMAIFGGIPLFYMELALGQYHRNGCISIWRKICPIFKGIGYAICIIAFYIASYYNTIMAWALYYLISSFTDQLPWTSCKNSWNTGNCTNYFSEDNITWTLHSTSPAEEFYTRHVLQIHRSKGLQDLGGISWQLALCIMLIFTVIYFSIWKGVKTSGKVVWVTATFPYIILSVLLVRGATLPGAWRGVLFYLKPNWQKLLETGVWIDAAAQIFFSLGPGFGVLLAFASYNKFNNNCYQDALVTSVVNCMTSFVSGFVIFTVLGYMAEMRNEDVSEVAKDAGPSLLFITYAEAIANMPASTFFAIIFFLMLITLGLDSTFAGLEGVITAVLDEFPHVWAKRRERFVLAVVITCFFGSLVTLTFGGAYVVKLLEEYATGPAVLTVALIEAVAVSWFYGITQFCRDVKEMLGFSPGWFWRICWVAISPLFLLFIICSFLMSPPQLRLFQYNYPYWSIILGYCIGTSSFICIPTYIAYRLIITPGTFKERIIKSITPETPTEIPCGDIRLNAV
T1 sequence (P31652 whole entry): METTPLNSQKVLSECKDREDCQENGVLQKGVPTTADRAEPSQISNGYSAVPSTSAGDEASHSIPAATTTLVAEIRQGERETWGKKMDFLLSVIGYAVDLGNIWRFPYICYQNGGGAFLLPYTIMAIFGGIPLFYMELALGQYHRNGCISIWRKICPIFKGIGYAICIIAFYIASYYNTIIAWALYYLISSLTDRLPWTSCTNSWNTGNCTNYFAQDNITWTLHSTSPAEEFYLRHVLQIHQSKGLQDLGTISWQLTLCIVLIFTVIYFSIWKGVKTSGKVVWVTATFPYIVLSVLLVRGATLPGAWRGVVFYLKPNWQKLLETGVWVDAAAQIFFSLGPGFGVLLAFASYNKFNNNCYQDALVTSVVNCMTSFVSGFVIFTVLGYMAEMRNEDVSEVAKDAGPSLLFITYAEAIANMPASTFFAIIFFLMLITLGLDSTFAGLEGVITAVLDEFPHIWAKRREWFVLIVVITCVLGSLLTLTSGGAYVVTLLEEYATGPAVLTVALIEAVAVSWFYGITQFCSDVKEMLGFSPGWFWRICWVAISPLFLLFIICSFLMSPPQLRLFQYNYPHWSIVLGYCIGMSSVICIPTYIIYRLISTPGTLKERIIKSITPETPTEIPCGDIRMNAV

SMILES: COc1cccc(C2CN(C)Cc3cc(OCCCN4CCC(F)CC4)ccc32)c1 (racemic) [Example 44, 7-[3-(4-Fluoro-piperidin-1-yl)-propoxy]-4-(3-methoxyphenyl)-2-methyl-1,2,3,4-tetrahydro-isoquinoline]
Ki (Rat SERT): 4 nM | Ki (human H3 receptor [1]): 2 nM | Ki (human SERT): 7 nM | Kb (human H3 receptor [2]; [3]): 0.794 nM

SMILES: COc1cccc(C2CN(C)Cc3cc(OCCCN4CCC(F)CC4)ccc32)c1 (single isomer, unassigned) [Example 45A, 7-[3-(4-Fluoro-piperidin-1-yl)-propoxy]-4-(3-methoxyphenyl)-2-methyl-1,2,3,4-tetrahydro-isoquinoline]
Ki (Rat SERT): 9 nM | Ki (human H3 receptor [1]): 2 nM | Ki (human SERT): 7 nM | Kb (human H3 receptor [2]; [3]): 1.26 nM

SMILES: COc1cccc(C2CN(C)Cc3cc(OCCCN4CCC(F)CC4)ccc32)c1 (single isomer, unassigned) [Example 45B, 7-[3-(4-Fluoro-piperidin-1-yl)-propoxy]-4-(3-methoxyphenyl)-2-methyl-1,2,3,4-tetrahydro-isoquinoline]
Ki (Rat SERT): 5 nM | Ki (human H3 receptor [1]): 3 nM | Ki (human SERT): 6 nM | Kb (human H3 receptor [2]; [3]): 0.794 nM

SMILES: COc1ccc(C2CN(C)Cc3cc(OCCCN4CC[C@@H](N(C)C)C4)ccc32)cc1 (stereo in doubt) [Example 10, (1-{3-[4-(4-Methoxy-phenyl)-2-methyl-1,2,3,4-tetrahydro-isoquinolin-7-yloxy]-propyl}-pyrrolidin-3-yl)-dimethyl-amine]
Ki (Rat SERT): 4 nM | Ki (human H3 receptor [1]): 1 nM | Ki (human SERT): 5 nM | Kb (human H3 receptor [2]; [3]): 3.98 nM

SMILES: CCN(CC)CCCOc1ccc2c(c1)CN(C)CC2c1ccc(OC)cc1 (centres unmarked) [Example 3, Diethyl-{3-[4-(4-methoxy-phenyl)-2-methyl-1,2,3,4-tetrahydro-isoquinolin-7-yloxy]-propyl}-amine]
Ki (Rat SERT): 3 nM | Ki (human H3 receptor [1]): 0.7 nM | Ki (human SERT): 4 nM | Kb (human H3 receptor [2]; pA2, SK-N-MC cells expressing human H3 receptor and CRE-β-galactosidase reporter): 0.398 nM

Results, then the compound that gave them:

Ki (Rat SERT): 4 nM | Ki (human H3 receptor [1]): 6 nM | Ki (human SERT): 6 nM | Kb (human H3 receptor [2]; [3]): 5.01 nM
SMILES: COc1ccc(C2CN(C)Cc3cc(OCCCN4CCC(C#N)CC4)ccc32)cc1 (single isomer, unassigned) [Example 37B, 1-{3-[4-(4-Methoxy-phenyl)-2-methyl-1,2,3,4-tetrahydro-isoquinolin-7-yloxy]-propyl}-piperidine-4-carbonitrile]

Ki (Rat SERT): 8 nM | Ki (human H3 receptor [1]): 7 nM | Ki (human SERT): 4 nM | Kb (human H3 receptor [2]; [3]): 3.98 nM
SMILES: COc1ccc(C2CN(C)Cc3cc(OC[C@H]4CN(C(C)C)CCO4)ccc32)cc1 (single isomer, unassigned) [Example 256B, 7-(4-Isopropyl-morpholin-2R-ylmethoxy)-4-(4-methoxy-phenyl)-2-methyl-1,2,3,4-tetrahydro-isoquinoline]

Ki (Rat SERT): 6 nM | Ki (human H3 receptor [1]): 4 nM | Ki (human SERT): 8 nM | Kb (human H3 receptor [2]; [3]): 5.01 nM
SMILES: COc1ccc(C2CN(C)Cc3cc(OCCCN4CCC(F)(F)CC4)ccc32)cc1 (centres unmarked) [Example 8, 7-[3-(4,4-Difluoro-piperidin-1-yl)-propoxy]-4-(4-methoxy-phenyl)-2-methyl-1,2,3,4-tetrahydro-isoquinoline]

Ki (Rat SERT): 5 nM | Ki (human H3 receptor [1]): 3 nM | Ki (human SERT): 6 nM | Kb (human H3 receptor [2]; [3]): 2.51 nM
SMILES: COc1ccc(C2CN(C)Cc3cc(OCCCN4CCOCC4)ccc32)cc1 (centres unmarked) [Example 9, 4-(4-Methoxy-phenyl)-2-methyl-7-(3-morpholin-4-yl-propoxy)-1,2,3,4-tetrahydro-isoquinoline]

Ki (Rat SERT): 2 nM | Ki (human H3 receptor [1]): 0.6 nM | Ki (human SERT): 5 nM | Kb (human H3 receptor [2]; [3]): 0.398 nM
SMILES: COc1ccc(C2CN(C)Cc3cc(OCCCN4[C@H](C)CC[C@H]4C)ccc32)cc1 (stereo partly drawn) [Example 11, 7-[3-((2R,5R)-trans-Dimethyl-pyrrolidin-1-yl)-propoxy]-4-(4-methoxy-phenyl)-2-methyl-1,2,3,4-tetrahydro-isoquinoline]

Ki (Rat SERT): 2 nM | Ki (human H3 receptor [1]): 9 nM | Ki (human SERT): 4 nM | Kb (human H3 receptor [2]; [3]): 12.6 nM
SMILES: COc1ccc(C2CN(C)Cc3cc(OCCCN4CCC(O)CC4)ccc32)cc1 (centres unmarked) [Example 21, 1-{3-[4-(4-Methoxy-phenyl)-2-methyl-1,2,3,4-tetrahydro-isoquinolin-7-yloxy]-propyl}-piperidin-4-ol]
